Experimental data published in US20220096454A1, “CARBOXYLIC ACID DERIVATIVES” (Merck Patent GmbH, priority 2018, published 2022).

Tests used:
TNKS2 = molecular target: T1, TNKS2 (Homo sapiens, UniProt Q9H2K2); assay: TNKS2 activity ELISA (autoparsylation assay); type: biochemical; conditions: GST-tagged Tnks-2 (873-1166 aa), 10 μM bio-NAD, 1 hour at 30° C.
T1 construct: GST-tagged Tnks-2 (873-1166 aa, prepared in-house); made in house
Procedure: (§1) Description of the TNKS1 and TNKS2 ELISA Assay
(§2) Biochemical activity testing of TNKS 1 and 2: activity ELISA (Autoparsylation assay)
(§3) For analysis of autoparsylation activity of TNKS 1 and 2 an activity ELISA is performed: In the first step GST tagged TNKS is captured on a Glutathione coated plate. Then the activity assay with biotinylated NAD is performed in the absence/presence of the compounds. During the enzymatic reaction GST tagged TNKS transfers biotinylated ADP-ribose to itself from biotinylated NAD as co-substrate. For the detection streptavidin-HRP conjugate is added that binds to the biotinylated TNKS and is thereby captured to the plates. The amount of biotinylated resp. autoparsylated TNKS is detected with a luminescence substrate for HRP. The level of the luminescence signal correlates directly with the amount of autoparsylated TNKS and therefore with activity of TNKS.
(§4) The activity ELISA is performed in 384 well Glutathione coated microtiter plates (Express capture Glutathione coated plate, Biocat, Heidelberg, Germany). The plates are pre-equilibrated with PBS. […] The plates are washed 3 times with PBS-Tween-20. The wells are blocked by incubation at room temperature for 20 minutes with 50 μl blocking buffer (PBS, 0.05% Tween-20, 0.5% BSA). Afterwards the plates are washed 3 times with PBS-Tween-20. […] The reaction is stopped by 3 times washing with PBS-Tween-20. For the detection 50 μl of 20 ng/μl Streptavidin, HRP conjugate (MoBiTec, Göttingen, Germany) in PBS/0.05% Tween-20/0.01% BSA are added and the plates are incubated for 30 minutes at room temperature. After three times washing with PBS-Tween-20 50 μl of SuperSignal ELISA Femto Maximum sensitivity substrate solution (ThermoFisherScientific (Pierce), Bonn, Germany) are added. Following a 1 minute incubation at room temperature luminescence signals are measured with an Envision multimode reader (Perkin Elmer LAS Germany GmbH) at 700 nm. The full value used is the inhibitor-free reaction. […] The inhibitory values (IC50) are determined using either the program Symyx Assay Explorer® or Condosseo® from GeneData.

TNKS1 = molecular target: T2, TNKS1 (Homo sapiens, UniProt O95271); assay: TNKS1 activity ELISA (autoparsylation assay); type: biochemical; conditions: GST-tagged Tnks-1 (1023-1327 aa), 10 μM bio-NAD, 1 hour at 30° C.
T2 construct: GST-tagged Tnks-1 (1023-1327 aa, prepared in-house); made in house
Procedure: as §1, §2, §3, §4

Tankyrases = conditions: read-out: EC50 [M] TNKS cellular assay; increase of Axin2 level in colon carcinoma cell line DLD1, 24 hours
Procedure: Measurement of Cellular Inhibition of Tankyrase
Cells of the colon carcinoma cell line DLD1 are plated in 96 well plates with 1.5×10^4 cells per well. Next day, cells are treated with a serial dilution of test compound in seven steps as triplicates with a final DMSO concentration of 0.3%. […] The amount of isolated Axin2 protein is determined in a Luminex^200 machine (Luminex Corporation) according to the manufacturer's instruction by counting 100 events per well. […] As controls cells are treated with solvent alone (neutral control) and with a Tankyrase reference inhibitor IWR-2 (3E−06 M) which refers as control for maximum increase of Axin2. For analysis, the obtained data are normalized against the untreated solvent control and fitted for determination of the EC50 values using the Assay Explorer software (Accelrys).

T2 sequence (O95271 1023-1327): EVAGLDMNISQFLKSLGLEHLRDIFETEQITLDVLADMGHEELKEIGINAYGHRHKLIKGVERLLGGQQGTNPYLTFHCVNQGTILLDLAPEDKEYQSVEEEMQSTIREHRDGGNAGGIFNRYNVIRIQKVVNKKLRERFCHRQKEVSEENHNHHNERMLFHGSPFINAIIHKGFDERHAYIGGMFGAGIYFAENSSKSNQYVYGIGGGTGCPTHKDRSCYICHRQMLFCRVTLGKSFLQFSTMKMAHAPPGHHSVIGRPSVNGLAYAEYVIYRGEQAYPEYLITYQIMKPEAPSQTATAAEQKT
T1 sequence (Q9H2K2 873-1166): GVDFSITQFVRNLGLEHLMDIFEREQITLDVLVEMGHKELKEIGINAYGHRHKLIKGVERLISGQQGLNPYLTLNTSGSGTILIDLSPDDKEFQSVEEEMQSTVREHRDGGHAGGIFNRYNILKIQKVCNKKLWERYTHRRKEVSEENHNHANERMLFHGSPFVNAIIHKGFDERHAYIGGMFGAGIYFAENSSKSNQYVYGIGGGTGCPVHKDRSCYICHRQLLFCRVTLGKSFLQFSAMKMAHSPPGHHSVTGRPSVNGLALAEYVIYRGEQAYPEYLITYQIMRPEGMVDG

Structure (SMILES) | IC50 (TNKS2) | IC50 (TNKS1) | EC50 (Tankyrases)
CN(C(=O)N1CCC(C(=O)c2ccc3ncn(C)c3c2)CC1)c1ccc(C(=O)O)cc1 [Compound C26, 4-{Methyl-[4-(3-methyl-3H-benzoimidazole-5-carbonyl)-piperidine-1-carbonyl]-amino}-benzoic Acid] | 0.62 nM | 1.5 nM | 1.1e-06 M
CCN(C(=O)N1CCC(C(=O)c2ccc3c(c2)cc(C(=O)O)n3C)CC1)c1ccc(F)cc1 [Compound C6, 5-{1-[Ethyl-(4-fluoro-phenyl)-carbamoyl]-piperidine-4-carbonyl}-1-methyl-1H-indole-2-carboxylic Acid] | 1.4 nM | 0.41 nM | 5.9e-09 M
CN(C(=O)N1CCC(C(=O)c2ccc3ncn(C)c3c2)CC1)c1cccc(C(=O)O)c1 [Compound C28, 3-{Methyl-[4-(3-methyl-3H-benzimidazole-5-carbonyl)-piperidine-1-carbonyl]-amino}-benzoic Acid] | 23 nM | 53 nM | 
CN(C(=O)N1CCC(C(=O)c2ccc3cnn(C)c3c2)CC1)c1ccc(C(=O)O)nc1 [Compound C21, 5-{Methyl-[4-(1-methyl-1H-indazole-6-carbonyl)-piperidine-1-carbonyl]-amino}-pyridine-2-carboxylic Acid] | 14 nM | 37 nM | 1.5e-05 M
CCN(C(=O)N1CCC(C(=O)c2ccc3nnn(C)c3c2)CC1)c1ccc(C(=O)O)cc1 [Compound C35, 4-{Ethyl-[4-(3-methyl-3H-benzotriazole-5-carbonyl)-piperidine-1-carbonyl]-amino}-benzoic Acid] | 0.192 nM | 0.472 nM | 3.1e-07 M
CN(C(=O)N1CCC(C(=O)c2ccc3c(c2)ncn3C)CC1)c1ccc(C(=O)O)cc1 [Compound C30, 4-{Methyl-[4-(1-methyl-1H-benzimidazole-5-carbonyl)-piperidine-1-carbonyl]-amino}-benzoic Acid] | 10 nM | 17 nM | 6e-06 M
CCN(C(=O)N1CCC(C(=O)c2ccc3c(C(=O)O)nn(C)c3c2)CC1)c1ccc(F)cc1 [Compound C10, 6-{1-[Ethyl-(4-fluoro-phenyl)-carbamoyl]-piperidine-4-carbonyl}-1-methyl-1H-indazole-3-carboxylic Acid] | 0.432 nM | 0.744 nM | 4.6e-07 M
CCN(C(=O)N1CCC(C(=O)c2ccc3ncn(C)c3c2)CC1)c1cccc(C(=O)O)c1 [Compound C29, 3-{Ethyl-[4-(3-methyl-3H-benzimidazole-5-carbonyl)-piperidine-1-carbonyl]-amino}-benzoic Acid] | 3 nM | 3.4 nM | 4.75e-06 M
CCN(C(=O)N1CCC(C(=O)c2ccc3c(c2)ncn3C)CC1)c1cccc(C(=O)O)c1 [Compound C33, 3-{Ethyl-[4-(1-methyl-1H-benzimidazole-5-carbonyl)-piperidine-1-carbonyl]-amino}-benzoic Acid] | 1.5 nM | 3.3 nM | 3.6e-06 M
CCN(C(=O)N1CCC(C(=O)c2ccc3c(cnn3C)c2)CC1)c1cccc(C(=O)O)c1 [Compound C25, 3-{Ethyl-[4-(1-methyl-1H-indazole-5-carbonyl)-piperidine-1-carbonyl]-amino}-benzoic Acid] | 0.89 nM | 1.8 nM | 4.87e-08 M
CCN(C(=O)N1CCC(C(=O)c2ccc3c(c2)c(C(=O)O)nn3C)CC1)c1ccc(OC)cc1 [Compound C16, 5-{1-[Ethyl-(4-methoxy-phenyl)-carbamoyl]-piperidine-4-carbonyl}-1-methyl-1H-indazole-3-carboxylic Acid] | 4.5 nM | 9.7 nM | 9.7e-07 M
COc1ccc(N(C)C(=O)N2CCC(C(=O)c3ccc4cc(C(=O)O)n(C)c4c3)CC2)cc1 [Compound C3, 6-{1-[(4-Methoxy-phenyl)-methyl-carbamoyl]-piperidine-4-carbonyl}-1-methyl-1H-indole-2-carboxylic Acid] | 2.7 nM | 1.8 nM | 1.3e-07 M
CN(C(=O)N1CCC(C(=O)c2ccc3cnn(C)c3c2)CC1)c1ccc(C(=O)O)cc1 [Compound C17, 4-{Methyl-[4-(1-methyl-1H-indazole-6-carbonyl)-piperidine-1-carbonyl]-amino}-benzoic Acid] | 0.798 nM | 1.32 nM | 2.07e-07 M
CCN(C(=O)N1CCC(C(=O)c2ccc3cc(C(=O)O)n(C)c3c2)CC1)c1ccc(F)cc1 [Compound C2, 6-{1-[Ethyl-(4-fluoro-phenyl)-carbamoyl]-piperidine-4-carbonyl}-1-methyl-1H-indole-2-carboxylic Acid] | 0.49 nM | 0.67 nM | 1.9e-08 M
COc1ccc(N(C)C(=O)N2CCC(C(=O)c3ccc4c(C(=O)O)nn(C)c4c3)CC2)cc1 [Compound C11, 6-{1-[(4-Methoxy-phenyl)-methyl-carbamoyl]-piperidine-4-carbonyl}-1-methyl-1H-indazole-3-carboxylic Acid] | 0.74 nM | 1.4 nM | 3.9e-06 M
COc1ccc(N(C)C(=O)N2CCC(C(=O)c3ccc4c(c3)c(C(=O)O)nn4C)CC2)cc1 [Compound C15, 5-{1-[(4-Methoxy-phenyl)-methyl-carbamoyl]-piperidine-4-carbonyl}-1-methyl-1H-indazole-3-carboxylic Acid] | 19 nM | 43 nM | 7.1e-06 M
CN(C(=O)N1CCC(C(=O)c2ccc3cnn(C)c3c2)CC1)c1cccc(C(=O)O)c1 [Compound C19, 3-{Methyl-[4-(1-methyl-1H-indazole-6-carbonyl)-piperidine-1-carbonyl]-amino}-benzoic Acid] | 1.4 nM | 2.2 nM | 1.4e-06 M
CN(C(=O)N1CCC(C(=O)c2ccc3c(cnn3C)c2)CC1)c1ccc(C(=O)O)cc1 [Compound C22, 4-{Methyl-[4-(1-methyl-1H-indazole-5-carbonyl)-piperidine-1-carbonyl]-amino}-benzoic Acid] | 3.9 nM | 7.6 nM | 3.46e-07 M
CCN(C(=O)N1CCC(C(=O)c2ccc3c(c2)c(C(=O)O)nn3C)CC1)c1ccc(F)cc1 [Compound C14, 5-{1-[Ethyl-(4-fluoro-phenyl)-carbamoyl]-piperidine-4-carbonyl}-1-methyl-1H-indazole-3-carboxylic Acid] | 5.91 nM | 12.4 nM | 9.4e-06 M
CCN(C(=O)N1CCC(C(=O)c2ccc3cnn(C)c3c2)CC1)c1cccc(C(=O)O)c1 [Compound C20, 3-{Ethyl-[4-(1-methyl-1H-indazole-6-carbonyl)-piperidine-1-carbonyl]-amino}-benzoic Acid] | 0.65 nM | 0.58 nM | 1.93e-07 M
CN(C(=O)N1CCC(C(=O)c2ccc3c(c2)c(C(=O)O)nn3C)CC1)c1ccc(F)cc1 [Compound C13, 5-{1-[(4-Fluoro-phenyl)-methyl-carbamoyl]-piperidine-4-carbonyl}-1-methyl-1H-indazole-3-carboxylic Acid] | 49.9 nM | 115 nM | 
CN(C(=O)N1CCC(C(=O)c2ccc3c(c2)ncn3C)CC1)c1cccc(C(=O)O)c1 [Compound C32, 3-{Methyl-[4-(1-methyl-1H-benzimidazole-5-carbonyl)-piperidine-1-carbonyl]-amino}-benzoic Acid] | 7.8 nM | 19 nM | 
